Reference: PubChem BioAssay AID179 (DTP/NCI, 2004)
Where “and” joins values, the source holds several entries; their conditions need not be identical. Equal entries are not always repeated. Calls of active or inactive are those of the source.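 The calls were made as follows: active = compounds giving half or more protection of infected cells from virus-caused growth loss, again on retest; inactive = the rest.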

Tested on: CEM cells HIV-1 protection, formazan growth assay
Assay: NCI AIDS Antiviral Assay
Settings: for IC50: measured here: growth of uninfected CEM cells
Procedure, shortened: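 Steps: treat uninfected and HIV-1-infected human CEM cells at five drug levels; quantify growth by soluble formazan; retest any compound reaching 50% protection; classify actives from the retest.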

| SMILES | EC50 | IC50 | outcome |
| --- | --- | --- | --- |
| COC(=O)C(CSSCC(C(=O)NC(Cc1ccccc1)C(=O)NCC(=O)OC(C)(C)C)N1C(=O)CCC1=O)NC(=O)OCc1ccccc1 (centres undefined) | > 200 µM | 20.4 µM | – |
| COC(=O)CCCCC=C(c1cc(Cl)c(OC)c(C(=O)OC)c1)c1cc(Cl)c(OC)c(C(=O)OC)c1 | 6.76 µM | 60.3 µM | – |
| O=S(=O)(O)OCC1OC2OC3C(COS(=O)(=O)O)OC(OC4C(COS(=O)(=O)O)OC(OC5C(COS(=O)(=O)O)OC(OC6C(COS(=O)(=O)O)OC(OC7C(COS(=O)(=O)O)OC(OC8C(COS(=O)(=O)O)OC(OC1C(OS(=O)(=O)O)C2OS(=O)(=O)O)C(OS(=O)(=O)O)C8OS(=O)(=O)O)C(OS(=O)(=O)O)C7OS(=O)(=O)O)C(OS(=O)(=O)O)C6OS(=O)(=O)O)C(OS(=O)(=O)O)C5OS(=O)(=O)O)C(OS(=O)(=O)O)C4OS(=O)(=O)O)C(OS(=O)(=O)O)C3OS(=O)(=O)O (centres undefined) | 21.4 µM and > 50.1 µM | 75.9 µM and > 50.1 µM | – |
| CC1OC(=O)N(CCCC=C2SCCCS2)C1=O (centres undefined) | – | – | inactive |
| COc1ccc(CC2C(=O)NC(C)C(=O)N(C)C3C(=O)N(C)C(Cc4ccc(O)c(c4)Oc4ccc(cc4)C3O)C(=O)NC(C)C(=O)NC(C)C(=O)N2C)cc1 (centres undefined) | > 0.2 µM | 0.0631 µM | – |
| C=CCCCCC1CCC2CCC(CCCC)N12 (centres undefined) | > 525 µM | > 525 µM | – |
| CN(C)CCn1nc2n(c(=O)c1=O)CC(=O)N(C)c1ccc(Cl)cc1-2 | > 407 µM | > 407 µM | – |
| O=C1CC(CC(=O)C2CCCCC2=O)CC(=O)N1 (centres undefined) | – | – | inactive |
| COC(=O)C1=C(C(=O)OC)C2C=CC1C1C(Cl)=C(Cl)C21 (centres undefined) | – | – | inactive |
| CP1(=S)CC[C@H]2C3=C(CC[C@@H]21)CC(=O)CC3 (some centres undefined) | – | – | inactive |
| O=C(O)c1ccc(-c2c3ccc(=O)cc-3oc3cc(O)ccc23)cc1 | > 200 µM | 107 µM | – |
| O=C(O)CCCCCCCC(=O)O | > 1320 µM | > 1320 µM | – |
| O=NNc1ccc(-c2ccccc2)cn1 | > 200 µM | 43.7 µM | – |
| COc1ccc2ccc3c(CCN(C)C#N)cc4c(c3c2c1OC(C)=O)OCO4 | > 34.7 µM | > 34.7 µM | – |
| O=C1C(/C=N\C(=S)NCc2ccccc2)=C(O)c2ccccc21 | > 200 µM | 67.6 µM | – |
| CC(=O)OCCOCn1cnc2c(Cl)nc(Cl)nc21 | > 200 µM | 7.24 µM | – |
| COc1ccc2c(c1O)C13CCN(C)C(C2)C12C=CC(=O)C3c1c(O)ccc(O)c12 (centres undefined) | > 200 µM | 2.95 µM | – |
| CC1(C)OC(=O)C(C#N)=C1/C=C/c1coc2ccc(Cl)cc2c1=O | > 29.5 µM | > 29.5 µM | – |
| O=C1NC2(O)C(=O)c3ccccc3C2(O)N1 (centres undefined) | > 1120 µM | > 1120 µM | – |
| O=C(Cc1csc(-c2nc(CC(=O)NNc3ccccc3)cs2)n1)NNc1ccccc1 | > 145 µM | > 145 µM | – |

| SMILES | EC50 | IC50 | outcome |
| --- | --- | --- | --- |
| O=Nc1ccc2ccccc2c1O | > 200 µM | 4.27 µM | – |
| COc1nn(Cc2ccccc2F)c2ccc([N+](=O)[O-])cc12 | > 200 µM | 50.1 µM | – |
| O=C(CSC1=NNC2(C(=O)N1)c1ccccc1-c1ccccc12)NC(=S)Nc1ccccc1 | > 200 µM | 25.7 µM | – |
| CC1=C(C(=O)Nc2ccccc2C)C(c2ccccc2C)C(C(=O)Nc2ccccc2C)=C(C)N1 | > 15.5 µM | > 15.5 µM | – |
| O=C1CCCN1C(=O)CS(=O)(=O)c1ccccc1 | > 200 µM | > 200 µM | – |
| CCc1ccccc1NC(=O)C(=O)C(C#N)c1ccccc1Cl (centres undefined) | > 380 µM | > 380 µM | – |
| CO[C@H]1O[C@@H]2OC3(C)CCC4[C@H](C)CCC([C@H]1C)[C@]42OO3 (some centres undefined) | > 200 µM | 112 µM | – |
| CCC1(c2ccc3ccccc3c2)Oc2ccccc2-n2cccc2C1=O (centres undefined) | 1.17 µM | 91.2 µM | – |
| C/C(=N\NC(=O)/C(C#N)=C\c1ccc(N(CCC#N)CCC#N)cc1)c1ccccc1 | – | – | inactive |
| CC1(c2ccccc2)Sc2ccccc2-n2cccc2C1=O (centres undefined) | 1.05 µM | 3.8 µM | – |
| N#Cc1c(N2CCOCC2)ncn(-c2ccccc2)c1=O | > 200 µM | > 200 µM | – |
| Nc1ncnc2c1ncn2C1CCC(COP(=O)(O)O)O1 (centres undefined) | 20 µM | > 200 µM | – |
| COC(=O)[C@@H](Cc1ccccc1)N1O[C@]12CCCC[C@@H]2NC(=O)OC(C)(C)C (some centres undefined) | > 200 µM | 32.4 µM | – |
| C[CH2][Ge]([CH2]C)([CH2]C)[O]C(=O)C([O][Ge]([CH2]C)([CH2]C)[CH2]C)c1ccccc1 (centres undefined) | > 200 µM | 20.9 µM | – |
| C1=C[C@@H]2c3ccc4cnccc4c3NC[C@@H]2C1 | > 589 µM | 36.3 µM | – |
| COc1ccc2c(c1)CCN=C2c1ccccc1CCCCl | > 200 µM | 2.34 µM | – |
| CSc1c(C#N)c(=O)[nH]c2n[nH]c(C)c12 | > 200 µM | > 200 µM | – |
| Cc1ccnc2c1C(=O)C(=O)C=C2N1CCCC1 | – | – | inactive |
| O=C(OC1CCCC1)C1(O)CCCCC1 | > 200 µM | > 200 µM | – |
| Cc1c(CN2CCN(C)CC2)c(O)c2c(=O)c3c(O)c(CN4CCN(C)CC4)c(O)c4c5c(O)c(CN6CCN(C)CC6)c(O)c6c(=O)c7c(O)c(CN8CCN(C)CC8)c(C)c8c1c2c(c34)c(c78)c65 | > 10.2 µM | > 10.2 µM | – |
